This is an account of results in ChEMBL document CHEMBL1137166, “A unidirectional crosslinking strategy for HIV-1 protease dimerization inhibitors” (Bioorg Med Chem Lett, 2004).

Where a SMILES comes first, the peptide text is derived from it. [ ]: non-standard residue; d: D form. The star is where a group is joined. ξ: configuration not given here. Tyr(3-NO2) = N[C@@H](Cc1ccc(O)c([N+](=O)[O-])c1)C(=O)O; C16 diacid = O=C(O)CCCCCCCCCCCCCCC(=O)*; 1Nal = N[C@@H](Cc1cccc2ccccc12)C(=O)O; Cha = N[C@@H](CC1CCCCC1)C(=O)O; Ile(3ξ) = CCC(C)[C@H](N)C(=O)O; aThr = C[C@H](O)[C@H](N)C(=O)O; Fumaroyl = O=C(O)/C=C/C(=O)*; 12Ado = NCCCCCCCCCCCC(=O)O

Experiment [1] concerns the target Human immunodeficiency virus type 1 protease (Human immunodeficiency virus 1) (UniProt Q72874). Description: Percent inhibition against Human immunodeficiency virus-1 protease at the concentration of 100 uM.
Experiment [2] has as its target T1, Human immunodeficiency virus type 1 protease (Human immunodeficiency virus 1, UniProt Q72874). Description: Inhibitory activity against Human immunodeficiency virus-1 protease.
Experiment [3] concerns the target T1, Human immunodeficiency virus type 1 protease. In words: Binding activity towards Human immunodeficiency virus-1 protease.

On to `NC(=O)[C@H](Cc1ccc(O)c([N+](=O)[O-])c1)NC(=O)[C@H](CC1CCCCC1)NC(=O)/C=C/C(=O)O`, for which the inhibition (usually the percentage by which the read-out fell short of the control) in experiment [1] was < 20%.

For `CC(C)C[C@H](NC(=O)[C@@H](NC(=O)CCCCCCCCCCCCCCC(=O)N[C@@H](CC(N)=O)C(=O)N[C@@H](Cc1ccccc1)C(=O)O)[C@H](C)O)C(=O)N[C@@H](Cc1ccccc1)C(N)=O` ({Phe-Asn-C16 diacid}-[aThr]-Leu-Phe-NH2), half-maximal inhibition in experiment [2] (IC50) required 5.4 µM. The Ki (commonly a measure of affinity in units of concentration, obtained from inhibition or displacement) in experiment [3] turned out to be 3 µM.

With `CCC(C)[C@H](NC(=O)CCCCCCCCCCCNC(=O)[C@@H](NC(=O)[C@H](Cc1ccccc1)NC(C)=O)C(N)=O)C(=O)N[C@@H](Cc1ccccc1)C(N)=O` (stereo partly drawn), in experiment [1], the inhibition amounted to 15%.

On to `CCC(C)[C@H](NC(=O)CCCCCCCCCCCNC(=O)[C@@H](NC(=O)[C@@H](Cc1ccccc1)NC(=O)/C=C/C(=O)O)C(N)=O)C(=O)N[C@@H](Cc1ccccc1)C(N)=O` (stereo partly drawn), for which the IC50 (in general, the midpoint of a concentration-inhibition curve) in experiment [2] came out at 18.8 µM.

As to `CCC(C)[C@H](NC(=O)CCCCCCCCCCCNC(=O)[C@H](Cc1ccc(O)c([N+](=O)[O-])c1)NC(=O)[C@H](CC1CCCCC1)NC(=O)/C=C/C(=O)O)C(=O)N[C@@H](Cc1ccc(O)c([N+](=O)[O-])c1)C(N)=O` (stereo partly drawn) (Fumaroyl-[Cha][Tyr(3-NO2)][12Ado][Ile(3ξ)][Tyr(3-NO2)]-NH2), the IC50 in experiment [2] is 247 µM. The compound further showed a Ki in experiment [3] of 222 µM.

In experiment [2], `NC(=O)CCCCCCCCCCCNC(=O)[C@H](Cc1ccc(O)c([N+](=O)[O-])c1)NC(=O)[C@H](CC1CCCCC1)NC(=O)/C=C/C(=O)O` yielded an IC50 of 20 µM.

The compound `CCC(C)[C@H](NC(=O)CCCCCCCCCCCNC(=O)[C@H](Cc1ccc(O)c([N+](=O)[O-])c1)NC(=O)[C@H](CC1CCCCC1)NC(=O)/C=C/C(=O)O)C(=O)N[C@@H](Cc1cccc2ccccc12)C(N)=O` (stereo partly drawn) (Fumaroyl-[Cha][Tyr(3-NO2)][12Ado][Ile(3ξ)][1Nal]-NH2) yielded an IC50 in experiment [2] of 361 µM. The same compound displayed a Ki in experiment [3] of 209 µM.

For `CCC(C)[C@H](NC(=O)CCCCCCCCCCCNC(=O)[C@@H](NC(=O)[C@H](Cc1ccccc1)NC(=O)CCC(=O)O)C(N)=O)C(=O)N[C@@H](Cc1ccccc1)C(N)=O` (stereo partly drawn), in experiment [1], the inhibition was < 50%.

The compound `CCC(C)[C@H](NC(=O)CCCCCCCCCCCNC(=O)CNC(=O)[C@@H](CC(N)=O)NC(=O)[C@H](Cc1ccccc1)NC(=O)/C=C/C(=O)O)C(=O)N[C@@H](Cc1ccccc1)C(N)=O` (stereo partly drawn) returned an IC50 in experiment [2] of 16.8 µM.

In the case of `CCC(C)[C@H](NC(=O)CCCCCCCCCCCNC(=O)[C@@H](NC(=O)[C@@H](N)Cc1ccccc1)C(N)=O)C(=O)N[C@@H](Cc1ccccc1)C(N)=O` (stereo partly drawn), the inhibition in experiment [1] is 35%.

As for `CCC(C)[C@H](NC(=O)CCCCCCCCCCCNC(=O)[C@@H](NC(=O)[C@H](Cc1ccccc1)NC(=O)/C=C/C(=O)O)C(N)=O)C(=O)N[C@@H](Cc1ccccc1)C(N)=O` (stereo partly drawn), it took 12 µM to reach half-maximal inhibition in experiment [2] (IC50). Moreover, in experiment [3], the affinity corresponds to a Ki of 4.9 µM.

In experiment [2], `CCC(C)[C@H](NC(=O)CCCCCCCCCCCNC(=O)[C@H](NC(=O)[C@@H](Cc1ccccc1)NC(=O)/C=C/C(=O)O)C(N)=O)C(=O)N[C@@H](Cc1ccccc1)C(N)=O` (stereo partly drawn) returned a half-inhibitory concentration (IC50) of 9.7 µM.

For `CCC(C)[C@H](NC(=O)CCCCCCCCCCCNC(=O)[C@H](Cc1ccc(O)c([N+](=O)[O-])c1)NC(=O)[C@H](CC1CCCCC1)NC(=O)/C=C/C(=O)O)C(N)=O` (stereo partly drawn), the half-maximal inhibitory concentration (IC50) in experiment [2] was determined as 3.7 µM. This IC50 is about 2.6-fold lower than that of the compound before.

In experiment [2], `CC(C)C[C@H](NC(=O)CCCCCCCCCCCCCCC(=O)N[C@@H](CC(N)=O)C(=O)N[C@@H](Cc1ccccc1)C(=O)O)C(=O)N[C@@H](Cc1ccccc1)C(N)=O` (HELM PEPTIDE1{L.F.[am]}|PEPTIDE2{N.F}|CHEM1{[O=C(CCCCCCCCCCCCCCC(=O)[*:2])[*:1]]}$PEPTIDE1,CHEM1,1:R1-1:R1|PEPTIDE2,CHEM1,1:R1-1:R2$$$V2.0) showed an IC50 of 11 µM.

`CC[C@H](C)[C@H](NC(=O)[C@H](CCC(N)=O)NC(=O)[C@@H]1CCCN1C(=O)CCCCCCCCCCCCCCC(=O)N[C@@H](CO)C(=O)N[C@H](C(=O)N[C@@H](CC(C)C)C(=O)N[C@@H](CC(N)=O)C(=O)N[C@@H](Cc1ccccc1)C(=O)O)[C@@H](C)O)C(=O)N[C@H](C(=O)N[C@@H](CC(C)C)C(=O)N[C@@H](Cc1c[nH]c2ccccc12)C(=O)O)[C@H](C)O` gave an IC50 in experiment [2] of 0.35 µM. In experiment [3], the Ki amounted to 0.22 µM.

The compound `CCC(C)[C@H](NC(=O)CCCCCCCCCCCNC(=O)[C@H](NC(=O)[C@H](Cc1ccccc1)NC(=O)/C=C/C(=O)O)C(N)=O)C(=O)N[C@@H](Cc1ccccc1)C(N)=O` (stereo partly drawn) returned an IC50 in experiment [2] of 14.2 µM.

On to `CCC(C)[C@H](NC(=O)CCCCCCCCCCCNC(=O)[C@H](Cc1ccc(O)c([N+](=O)[O-])c1)NC(=O)[C@H](CC1CCCCC1)NC(=O)/C=C/C(=O)O)C(=O)N[C@@H](Cc1ccccc1)C(N)=O` (stereo partly drawn) (Fumaroyl-[Cha][Tyr(3-NO2)][12Ado][Ile(3ξ)]F-NH2), for which inhibition in experiment [2] was half-maximal at 327 µM (IC50). In experiment [3], this compound registered a Ki of 199 µM.
